The subject of the experiment is P388 leukemia ip, CD2F1 mice, survival T/C. Put plainly: NCI In Vivo Anticancer Drug Screen. Data for tumor model P388 Leukemia (intraperitoneal) in CD2F1 (CDF1) mice. The settings on record: endpoint: median survival time, higher = longer survival. Put shortly:
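Mice carrying the transplanted tumor received test compound or vehicle. Survival was recorded in each group, and the value is the treated-group measurement divided by that of the vehicle-treated control group.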

Where [1] appears, read: dose: 25.0 mg/kg/injection, schedule: Q01DX005 (ip), vehicle: saline with Tween-80.
Where [2] appears, read: dose: 50.0 mg/kg/injection, schedule: Q01DX005 (ip), vehicle: saline with Tween-80.
[3] abbreviates: dose: 100.0 mg/kg/injection, schedule: Q01DX005 (ip), vehicle: saline with Tween-80.
[4] abbreviates: dose: 60.0 mg/kg/injection, schedule: Q01DX005 (ip), vehicle: Klucel (hydroxypropylcellulose) (HPC).
Setting [5] is: dose: 120.0 mg/kg/injection, schedule: Q01DX005 (ip), vehicle: Klucel (hydroxypropylcellulose) (HPC).
Where [6] appears, read: dose: 240.0 mg/kg/injection, schedule: Q01DX005 (ip), vehicle: Klucel (hydroxypropylcellulose) (HPC).
The mark [7] stands for this setting: dose: 25.0 mg/kg/injection, schedule: Q01DX009 (ip), vehicle: saline with Tween-80.
Where [8] appears, read: dose: 50.0 mg/kg/injection, schedule: Q01DX009 (ip), vehicle: saline with Tween-80.
Where [9] appears, read: dose: 100.0 mg/kg/injection, schedule: Q01DX009 (ip), vehicle: saline with Tween-80.
Setting [10] is: dose: 200.0 mg/kg/injection, schedule: Q01DX005 (ip), vehicle: saline with Tween-80.

The structures appear in SMILES notation. “And” between values parts separate entries of the source, which are not always exact repeats. Identical values can stand only once. Inconclusive results and toxic doses are left out.

23 molecules from PubChem BioAssay AID330 (DTP/NCI, 2004) can be followed below.

`CC(C)C(=O)CCC(C)C1CCC2(C)C3CC=C4C(CCC(O)C4(C)C)C3(C)C(=O)CC12C` (configuration not stated): the T/C is 100 % of control (dose: 100.0 mg/kg/injection, schedule: Q04DX002 (ip), vehicle: saline); 98 % of control (dose: 200.0 mg/kg/injection, schedule: Q04DX002 (ip), vehicle: saline); 99 % of control (dose: 400.0 mg/kg/injection, schedule: Q04DX002 (ip), vehicle: saline).

As for `C=CCN1CCCC1=O`, the T/C by setting is: (dose: 100.0 mg/kg/injection, schedule: Q04DX003 (ip), vehicle: saline) 100 % of control; (dose: 200.0 mg/kg/injection, schedule: Q04DX003 (ip), vehicle: saline) 100 % of control; (dose: 400.0 mg/kg/injection, schedule: Q04DX003 (ip), vehicle: saline) 95 % of control.

`CC(C)NC(=O)OCc1c(COC(=O)NC(C)C)c(Sc2ccccc2)n2c1CCC2`: the T/C reads like this: under setting [1], 154 % of control; under setting [2], 163 % of control; under setting [3], 110 % of control.

Consider `O=C1CSC(c2ccccc2F)N1c1nncs1` (configuration not stated), for which the T/C (dose: 30.0 mg/kg/injection, schedule: Q01DX005 (ip), vehicle: Klucel (hydroxypropylcellulose) (HPC)) is 100 % of control; the T/C under setting [4] is 99 % of control; the T/C under setting [5] was 100 % of control; the T/C under setting [6] was 110 % of control.

As for `C=CC1(C)CCC(C(C)C(=O)/C=C/C(C)(C)O)O1` (configuration not stated), the T/C was 105 % of control (dose: 22.0 mg/kg/injection, schedule: Q01DX005 (ip), vehicle: Klucel (hydroxypropylcellulose) (HPC)); 113 % of control (dose: 44.0 mg/kg/injection, schedule: Q01DX005 (ip), vehicle: Klucel (hydroxypropylcellulose) (HPC)); 114 % of control (dose: 88.0 mg/kg/injection, schedule: Q01DX005 (ip), vehicle: Klucel (hydroxypropylcellulose) (HPC)); 118 % of control (dose: 176.0 mg/kg/injection, schedule: Q01DX005 (ip), vehicle: Klucel (hydroxypropylcellulose) (HPC)).

Consider `CC(=O)CC(=O)Cc1oc2c(C(C)=O)c(O)c(C)c(O)c2c1C`, for which the T/C under setting [7] is 90 % of control; the T/C under setting [8] was 90 % of control; the T/C under setting [9] is 88 % of control; the T/C (dose: 200.0 mg/kg/injection, schedule: Q01DX009 (ip), vehicle: saline with Tween-80) is 90 % of control.

On to `S=C(Nc1ccccn1)c1ccccn1`, for which the T/C under setting [8] was 95 % of control; the T/C (dose: 50.0 mg/kg/injection, schedule: Q01DX009 (ip), vehicle: saline) is 105 % of control; the T/C under setting [9] is 88 % of control; the T/C (dose: 100.0 mg/kg/injection, schedule: Q01DX009 (ip), vehicle: saline) is 103 % of control; the T/C (dose: 200.0 mg/kg/injection, schedule: Q01DX009 (ip), vehicle: saline) was 103 % of control.

Take `C[n+]1c2cc(N)ccc2cc2ccc(N)cc21`: the T/C runs as follows: (dose: 3.12 mg/kg/injection, schedule: Q01DX005 (ip), vehicle: suspension in saline) 121 % of control; (dose: 6.25 mg/kg/injection, schedule: Q01DX005 (ip), vehicle: suspension in saline) 117 % of control; (dose: 6.25 mg/kg/injection, schedule: Q01DX009 (ip), vehicle: saline) 153 % of control; (dose: 12.5 mg/kg/injection, schedule: Q01DX009 (ip), vehicle: saline) 164 % of control.

For the molecule `O=C(O)c1ccc(O)c(S)c1`, the T/C (dose: 100.0 mg/kg/injection, schedule: Q04DX003 (ip), vehicle: alcohol) is 106 % of control; the T/C (dose: 200.0 mg/kg/injection, schedule: Q04DX003 (ip), vehicle: alcohol) is 101 % of control; the T/C (dose: 400.0 mg/kg/injection, schedule: Q04DX003 (ip), vehicle: alcohol) was 105 % of control.

Regarding `CCCC(=O)C1C(c2ccccc2)CC(=O)C(CC)C1c1ccccc1` (configuration not stated), the T/C runs as follows: (dose: 12.5 mg/kg/injection, schedule: Q01DX005 (ip), vehicle: saline with Tween-80) 90 % of control; under setting [1], 95 % of control; under setting [2], 88 % of control and 90 % of control; under setting [10], 88 % of control.

For `CSc1ccc(N2C(=O)CSC2=S)cc1Cl`, the T/C (dose: 50.0 mg/kg/injection, schedule: Q01DX009 (ip), vehicle: suspension in saline) is 101 % of control; the T/C (dose: 100.0 mg/kg/injection, schedule: Q01DX009 (ip), vehicle: suspension in saline) is 99 % of control; the T/C (dose: 200.0 mg/kg/injection, schedule: Q01DX009 (ip), vehicle: suspension in saline) is 104 % of control.

`Cc1ccc2sc(-c3ccccc3)c(CCl)c(=O)c2c1`: the T/C runs as follows: (dose: 100.0 mg/kg/injection, schedule: Q04DX002 (ip), vehicle: saline with Tween-80) 102 % of control; (dose: 200.0 mg/kg/injection, schedule: Q04DX002 (ip), vehicle: saline with Tween-80) 108 % of control; (dose: 400.0 mg/kg/injection, schedule: Q04DX002 (ip), vehicle: saline with Tween-80) 108 % of control.

On to `CB1NN=C(C)c2ccsc21`, for which the T/C under setting [8] was 110 % of control.

As for `CCB1OCC(C2OC(O)C3OB(CC)OC32)O1` (configuration not stated), the T/C is 101 % of control and 96 % of control under setting [2]; 96 % of control under setting [3]; 103 % of control and 92 % of control under setting [10].

On to `O=C1OC2c3ccccc3C(=O)C2(c2ccccc2)O1` (configuration not stated), for which the T/C by setting is: (dose: 100.0 mg/kg/injection, schedule: Q01DX001 (ip), vehicle: saline with Tween-80) 97 % of control; under setting [3], 97 % of control; (dose: 200.0 mg/kg/injection, schedule: Q01DX001 (ip), vehicle: saline with Tween-80) 97 % of control; under setting [10], 97 % of control; (dose: 400.0 mg/kg/injection, schedule: Q01DX001 (ip), vehicle: saline with Tween-80) 96 % of control; (dose: 400.0 mg/kg/injection, schedule: Q01DX005 (ip), vehicle: saline with Tween-80) 96 % of control.

Turning to `C1CCC2(CC1)SC1(CCCCC1)SC1(CCCCC1)S2`, the T/C (dose: 100.0 mg/kg/injection, schedule: Q04DX003 (ip), vehicle: other) was 100 % of control; the T/C (dose: 200.0 mg/kg/injection, schedule: Q04DX003 (ip), vehicle: other) was 90 % of control; the T/C (dose: 400.0 mg/kg/injection, schedule: Q04DX003 (ip), vehicle: other) is 95 % of control.

Take `Nc1nc(=O)n(CCCSc2ccc([N+](=O)[O-])cc2)cc1-c1ccc(Cl)c(Cl)c1`: the T/C by setting is: under setting [4], 87 % of control; under setting [5], 97 % of control; under setting [6], 88 % of control.

In the case of `CCOC(=O)COc1ccc(NC(C)=O)cc1`, the T/C runs as follows: (dose: 60.0 mg/kg/injection, schedule: Q01DX005 (ip), vehicle: saline with Tween-80) 103 % of control; (dose: 120.0 mg/kg/injection, schedule: Q01DX005 (ip), vehicle: saline with Tween-80) 103 % of control; (dose: 240.0 mg/kg/injection, schedule: Q01DX005 (ip), vehicle: saline with Tween-80) 95 % of control.

On to `CSC1(SC)CCN(C)C1=O`, for which the T/C under setting [7] is 90 % of control, the T/C under setting [8] was 93 % of control and the T/C under setting [9] was 92 % of control.

For `C/C=C/C(=O)Oc1ccc[nH]c1=O`, the T/C runs as follows: (dose: 25.0 mg/kg/injection, schedule: Q01DX005 (ip), vehicle: Klucel (hydroxypropylcellulose) (HPC)) 105 % of control and 91 % of control; (dose: 50.0 mg/kg/injection, schedule: Q01DX005 (ip), vehicle: Klucel (hydroxypropylcellulose) (HPC)) 114 % of control and 116 % of control; (dose: 100.0 mg/kg/injection, schedule: Q01DX005 (ip), vehicle: Klucel (hydroxypropylcellulose) (HPC)) 108 % of control and 113 % of control; (dose: 200.0 mg/kg/injection, schedule: Q01DX005 (ip), vehicle: Klucel (hydroxypropylcellulose) (HPC)) 92 % of control.

For `COc1ccc(/C=N/NC(=O)C(=O)Nc2ccc(Cl)c([N+](=O)[O-])c2)cc1OC`, the T/C is, setting by setting: under setting [2], 93 % of control; under setting [3], 92 % of control; under setting [10], 103 % of control.

`CC1=CC=c2ccc3c(c2[N-]1)[N-]C(C)=CC=3.CC1=CC=c2ccc3c(c2[N-]1)[N-]C(C)=CC=3.O=[N+]([O-])O.[Cu+]`: the T/C is 101 % of control (dose: 6.25 mg/kg/injection, schedule: Q04DX002 (ip), vehicle: suspension in saline) and 103 % of control (dose: 12.5 mg/kg/injection, schedule: Q04DX002 (ip), vehicle: suspension in saline).

With `S=C1SCN(c2ccc3c(c2)OCO3)CN1c1ccc2c(c1)OCO2`, the T/C is 96 % of control (dose: 50.0 mg/kg/injection, schedule: Q01DX009 (ip), vehicle: Klucel (hydroxypropylcellulose) (HPC)); 100 % of control (dose: 100.0 mg/kg/injection, schedule: Q01DX009 (ip), vehicle: Klucel (hydroxypropylcellulose) (HPC)); 96 % of control (dose: 200.0 mg/kg/injection, schedule: Q01DX009 (ip), vehicle: Klucel (hydroxypropylcellulose) (HPC)).
